How the values were obtained:
[1] = tested on: HCC1937 BRCA1 mutant and HCC1937-BR (BRCA1 corrected) breast cancer cell-lines; conditions: HCC1937 BRCA1 mutant cell-line relative to the BRCA1 corrected cell-line (HCC1937-BR); constant exposure, 12-14 days
Experimental: The HCC1937 parental, HCC1937-EV and HCC1937-BR cell-lines were kindly donated by Professor Paul Harkin from Queen's University College Belfast (QUB). The cell-lines were routinely maintained in RPMI-1640 medium supplemented with 50 U penicillin/ml, 50 μg streptomycin/ml, 2 mM glutamine, 1 mM Sodium Pyruvate and 20% (v/v) fetal bovine serum (FBS). The HCC1937-EV and HCC937-BR cell-lines also required 0.2 ml/mg geneticin. Cell-lines were cultured at 37° C. with a humidified atmosphere of 5% CO2.
Twenty-four hours following seeding the cells were exposed to medium containing increasing doses of drug. Cell medium was replenished every 4-5 days. After 12-14 days the cells were fixed in methanol, stained with crystal violet and counted. The percentage survival of control for a given dose was calculated as the plating efficiencies for that dose divided by the plating efficiencies of vehicle-treated cells. Survival curves and half maximal inhibitory concentration (IC50) values were calculated using GraphPad Prism.

[2] = tested on: HCC1937 BRCA1 mutant and HCC1937-BR (BRCA1 corrected) breast cancer cell-lines; experiment: Cell viability assay (CellTitre-Glo), determination of cisplatin sensitivity; assay type: cell-based; conditions: HCC1937 BRCA1 mutant cell-line relative to the BRCA1 corrected cell-line (HCC1937-BR); 96 hours exposure
Experimental: For measurement of sensitivity to cisplatin, exponentially growing cells were seeded into 96-well plates. […] Cells were incubated in the presence of drug for 96 hours following which time the viability of the cells was assessed using the Promega CellTitre-Glo luminescent cell viability assay. The sensitivity of the cells was calculated as the percentage of vehicle (DMSO) control.

Compound	sensitivity to PARP-1 inhibitor (clonogenic survival) [1]	sensitivity to cisplatin (cell viability) [2]
O=C(c1cc(Cc2n[nH]c(=O)c3ccccc23)ccc1F)N1CCCNCC1 [KU0058948]	more sensitive	–
N.N.[Cl][Pt][Cl] [cisplatin]	–	more sensitive
